According to patent US20240246918A1, “COMPOUNDS AND COMPOSITIONS AS EIF4E INHIBITORS AND THE USES THEREOF” (Ribometrix, Inc., priority 2022, published 2024):

What was measured:
[1] = tested on: cap-dependent translation in Flp-In-293 reporter cells; assay: Cellular cap-dependent translation inhibition assay (dual luciferase assay, DLA; Fluc/Rluc ratio, 24 hours); type: cell-based; details: Homo sapiens, Flp-In-293, 24 h, dual luciferase assay, Flp-In-293 reporter cells, 24 hours, Fluc/Rluc ratio; read-out: DLA 205 IC50
human eIF4E protein = target: T1, human eIF4E protein (Homo sapiens, UniProt P06730); assay: Biochemical competitive binding assay (TR-FRET competition, EDA-m7GDP-ATTO-647N probe); details: read-out: hEIF4E TR-FRET IC50
T1 construct: purchased Novus NBP-45314
Procedure, shortened: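 IC50 values come from 4-parameter fits of the normalized 665/620 nm TR-FRET ratio. Compound was first incubated 15 min with 4 nM recombinant His-eIF4E bound to 2.5 nM Eu-anti-His antibody, then 15 min with 5 nM m7GDP-ATTO-647N tracer, in pH 7.5 HEPES buffer with 100 mM KCl, Tween-20 and BSA.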

[2] = tested on: COLO 205 colorectal tumor cells; assay: Tumor cell viability inhibition assay (CellTiter-Glo 2.0, 72 hours); type: cell-based; details: Homo sapiens, COLO 205, 72 h, COLO 205 cell viability
Procedure, shortened: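 IC50 derived by 4-parameter fitting after normalizing luminescence to DMSO and max-inhibition wells. Compounds tested as 11 concentrations in 4-fold steps on COLO 205 cells seeded at 1500 per well in RPMI-1640/10% FBS; ATP content measured with CellTiter-Glo 2.0 after 72 h.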

T1 sequence (P06730 whole entry): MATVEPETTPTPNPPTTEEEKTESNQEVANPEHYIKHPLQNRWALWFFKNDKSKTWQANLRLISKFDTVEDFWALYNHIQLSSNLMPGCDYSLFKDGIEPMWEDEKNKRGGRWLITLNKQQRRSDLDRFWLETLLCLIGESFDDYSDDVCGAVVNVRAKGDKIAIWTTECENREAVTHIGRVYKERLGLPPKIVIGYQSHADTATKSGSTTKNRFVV

Row | Structure (SMILES) | IC50 (human eIF4E protein) [nM] | IC50 [2] [µM] | IC50 [1] [nM]
1 | Cc1cc(-c2cc(Cl)ccc2OCCn2c(C)nc3c(c2=O)CC(N(C)Cc2ccncc2)CC3)c2sccc2n1 (stereo not drawn) [Compound 75] | 500 to 5000 | 5 to 20 | > 5000
2 | Cc1cc(-c2cc(Cl)ccc2OCCn2c(C)nc3c(c2=O)CC(N2CC4COCC4C2)CC3)c2sccc2n1 (stereo not drawn) [Compound 78] | 100 to 500 | > 20 | 1000 to 5000
3 | Cc1cc(-c2cc(Cl)ccc2OCCn2c(C)nc3c(c2=O)CC(N(CC(F)(F)F)C2CCC2)CC3)c2scc(C(=O)O)c2n1 (stereo not drawn) [Compound 83] | < 100 | 5 to 20 | 1000 to 5000
4 | Cc1cc(-c2cc(Cl)ccc2OCCn2c(C)nc3c(c2=O)CC(N(C)C(=O)C2CCN(C)CC2)CC3)c2scc(C(=O)NS(C)(=O)=O)c2n1 (stereo not drawn) [Compound 84] | < 100 | > 20 | > 5000
5 | Cc1nc2c(c(=O)n1CC#Cc1ccc(Cl)cc1-c1ccnc3c(C(=O)O)csc13)CC(N1CC(F)(F)C1)CC2 (stereo not drawn) [Compound 85] | 100 to 500 | < 5 | 1000 to 5000
6 | Cc1nc2c(c(=O)n1CC#Cc1ccc(Cl)cc1-c1ccnc3c(C(=O)O)csc13)CC(N(C)C1CC(F)(F)C1)CC2 (stereo not drawn) [Compound 86] | < 100 | < 5 | < 1000
7 | Cc1cc(-c2cc(Cl)ccc2OCCn2c(C)nc3c(c2=O)CC(N(CC(F)(F)F)C2CCC2)CC3)c2scc(C(=O)NS(C)(=O)=O)c2n1 (stereo not drawn) [Compound 87] | < 100 | < 5 | < 1000
8 | Cc1cc(-c2cc(Cl)ccc2OCCn2c(C)nc3c(c2=O)CC(N2CCN(C)C(=O)C2)CC3)c2scc(C(=O)NS(C)(=O)=O)c2n1 (stereo not drawn) [Compound 88] | < 100 | > 20 | > 5000
9 | Cc1cc(-c2cc(Cl)ccc2OCCn2c(C)nc3c(c2=O)CC(N2CC(C(F)(F)F)C2)CC3)c2scc(C(=O)O)c2n1 (stereo not drawn) [Compound 90] | < 100 | < 5 | < 1000
10 | Cc1cc(-c2cc(Cl)ccc2OCCn2c(C)nc3c(c2=O)CC(N(C)C2CCC2)CC3)c2scc(C(=O)O)c2n1 (stereo not drawn) [Compound 91] | < 100 | < 5 | < 1000
11 | Cc1cc(-c2cc(Cl)ccc2OCCn2c(C)nc3c(c2=O)CC(OC2CCN(C)CC2)CC3)c2scc(C(=O)O)c2n1 (stereo not drawn) [Compound 92] | 100 to 500 | > 20 | > 5000
12 | Cc1cc(-c2cc(Cl)ccc2OCCn2c(C)nc3c(c2=O)CC(N2CCN(C)C(=O)C2)CC3)c2scc(C(=O)O)c2n1 (stereo not drawn) [Compound 95] | < 100 | > 20 | > 5000
13 | Cc1cc(-c2cc(Cl)ccc2OCCn2c(C)nc3c(c2=O)CC(N(C)CC2CC(F)(F)C2)CC3)c2scc(C(=O)O)c2n1 (stereo not drawn) [Compound 96] | < 100 | < 5 | < 1000
14 | Cc1cc(-c2cc(Cl)ccc2OCCn2c(C)nc3c(c2=O)CC(N(C2CCC2)C2CC2)CC3)c2scc(C(=O)O)c2n1 (stereo not drawn) [Compound 97] | < 100 | < 5 | < 1000
15 | Cc1cc(-c2cc(Cl)ccc2OCCn2c(C)nc3c(c2=O)CC(N(C2CCC2)C2CC(F)(F)C2)CC3)c2scc(C(=O)NS(C)(=O)=O)c2n1 (stereo not drawn) [Compound 98] | < 100 | < 5 | < 1000
16 | COc1cc(CN(C)C2CCc3nc(C)n(CCOc4ccc(Cl)cc4-c4cc(C)nc5c(C(=O)O)csc45)c(=O)c3C2)ccn1 (stereo not drawn) [Compound 248] | < 100 | < 5 | < 1000
17 | Cc1cc(-c2cc(Cl)ccc2OCCn2c(C)nc3c(c2=O)CC(N(C)C2CC24CCC4)CC3)c2scc(C(=O)O)c2n1 (stereo not drawn) [Compound 262] | < 100 | < 5 | < 1000

Continued, in another order:

Row | IC50 (human eIF4E protein) [nM] | IC50 [2] [µM] | Structure (SMILES) | IC50 [1] [nM]
18 | < 100 | < 5 | Cc1cc(-c2cc(Cl)ccc2OCCn2c(C)nc3c(c2=O)CC(N(C)C)CC3)c2ccc(C(=O)NS(C)(=O)=O)n2n1 (stereo not drawn) [Compound 59, 4-[5-chloranyl-2-[2-[6-[di(methyl)amino]-2-methyl-4-oxidanylidene-5,6,7,8-tetrahydroquinazolin-3-yl]ethoxy]phenyl]-2-methyl-N-methylsulfonyl-pyrrolo[1,2-b]pyridazine-7-carboxamide] | < 1000
19 | < 100 | < 5 | Cc1cc(-c2cc(Cl)ccc2OCCn2c(C)nc3c(c2=O)CC(N2CCC(F)(F)C2)CC3)c2scc(C(=O)NS(C)(=O)=O)c2n1 (stereo not drawn) [Compound 60] | < 1000
20 | < 100 | < 5 | Cc1cc(-c2cc(Cl)ccc2OCCn2c(C)nc3c(c2=O)CC(N(C)CC(F)(F)F)CC3)c2scc(C(=O)NS(C)(=O)=O)c2n1 (stereo not drawn) [Compound 61] | < 1000
21 | < 100 | < 5 | Cc1cc(-c2cc(Cl)ccc2OCCn2c(C)nc3c(c2=O)CC(N2CCCCC2)CC3)c2ccc(C(=O)NS(C)(=O)=O)n2n1 (stereo not drawn) [Compound 62, 4-[5-chloranyl-2-[2-[2-methyl-4-oxidanylidene-6-(1-piperidyl)-5,6,7,8-tetrahydroquinazolin-3-yl]ethoxy]phenyl]-2-methyl-N-methylsulfonyl-pyrrolo[1,2-b]pyridazine-7-carboxamide] | < 1000
22 | < 100 | < 5 | Cc1cc(-c2cc(Cl)ccc2OCCn2c(C)nc3c(c2=O)CC(N(C)C2CC(F)(F)C2)CC3)c2scc(C(=O)NS(C)(=O)=O)c2n1 (stereo not drawn) [Compound 63] | < 1000
23 | < 100 | < 5 | Cc1cc(-c2cc(Cl)ccc2OCCn2c(C)nc3c(c2=O)CC(N(C)C2CN(CC(F)(F)F)C2)CC3)c2scc(C(=O)O)c2n1 (stereo not drawn) [Compound 64, 7-[5-chloranyl-2-[2-[2-methyl-6-[methyl-[1-[2,2,2-tris(fluorenyl)ethyl]azetidin-3-yl]amino]-4-oxidanylidene-5,6,7,8-tetrahydroquinazolin-3-yl]ethoxy]phenyl]-5-methyl-thieno[3,2-b]pyridine-3-carboxylic acid; 2,2,2-tris(fluorenyl)acetic acid] | < 1000
24 | < 100 | < 5 | Cc1cc(-c2cc(Cl)ccc2OCCn2c(C)nc3c(c2=O)CC(N(C)CC(F)F)CC3)c2scc(C(=O)NS(C)(=O)=O)c2n1 (stereo not drawn) [Compound 65] | < 1000
25 | < 100 | > 20 | Cc1cc(-c2cc(Cl)ccc2OCCn2c(C)nc3c(c2=O)CC(N(C)C2CNC2)CC3)c2scc(C(=O)O)c2n1 (stereo not drawn) [Compound 66, 7-[2-[2-[6-[azetidin-3-yl(methyl)amino]-2-methyl-4-oxidanylidene-5,6,7,8-tetrahydroquinazolin-3-yl]ethoxy]-5-chloranyl-phenyl]-5-methyl-thieno[3,2-b]pyridine-3-carboxylic acid; 2,2,2-tris(fluorenyl)acetic acid] | > 5000
26 | < 100 | < 5 | Cc1cc(-c2cc(Cl)ccc2OCCn2c(C)nc3c(c2=O)CC(N(C)Cc2ccncc2)CC3)c2scc(C(=O)NS(C)(=O)=O)c2n1 (stereo not drawn) [Compound 68] | < 1000
27 | < 100 | < 5 | Cc1cc(-c2cc(Cl)ccc2OCCn2c(C)nc3c(c2=O)CC(N(C)C2CCCCC2)CC3)c2scc(C(=O)O)c2n1 (stereo not drawn) [Compound 69] | < 1000
28 | < 100 | > 20 | Cc1cc(-c2cc(Cl)ccc2OCCn2c(C)nc3c(c2=O)CC(N(C)C(=O)C2CCN(CC(F)(F)F)CC2)CC3)c2scc(C(=O)O)c2n1 (stereo not drawn) [Compound 71] | > 5000
29 | < 100 | > 20 | Cc1cc(-c2cc(Cl)ccc2OCCn2c(C)nc3c(c2=O)CC(N(C)C(=O)C2CN(CC(F)(F)F)C2)CC3)c2scc(C(=O)O)c2n1 (stereo not drawn) [Compound 72] | > 5000
30 | < 100 | > 20 | Cc1cc(-c2cc(Cl)ccc2OCCn2c(C)nc3c(c2=O)CC(N(C)C(=O)C2CN(C)C2)CC3)c2scc(C(=O)O)c2n1 (stereo not drawn) [Compound 73] | > 5000
31 | < 100 | > 20 | Cc1cc(-c2cc(Cl)ccc2OCCn2c(C)nc3c(c2=O)CC(N(C)C(=O)C2CCN(C)CC2)CC3)c2scc(C(=O)O)c2n1 (stereo not drawn) [Compound 74] | > 5000
32 | < 100 | < 5 | Cc1cc(-c2cc(Cl)ccc2OCCn2c(C)nc3c(c2=O)CC(N(C2CC2)C2CC(F)(F)C2)CC3)c2scc(C(=O)O)c2n1 (stereo not drawn) [Compound 76] | < 1000
33 | < 100 | 5 to 20 | Cc1cc(-c2cc(Cl)ccc2OCCn2c(C)nc3c(c2=O)CC(N(C)C2CCOCC2)CC3)c2scc(C(=O)O)c2n1 (stereo not drawn) [Compound 77] | < 1000
34 | < 100 | < 5 | COC1CCN(C2CCc3nc(C)n(CCOc4ccc(Cl)cc4-c4cc(C)nc5c(C(=O)NS(C)(=O)=O)csc45)c(=O)c3C2)CC1 (stereo not drawn) [Compound 79] | < 1000
35 | < 100 | < 5 | Cc1cc(-c2cc(Cl)ccc2OCCn2c(C)nc3c(c2=O)CC(N(C)C2CCCC2)CC3)c2scc(C(=O)O)c2n1 (stereo not drawn) [Compound 80] | < 1000
36 | < 100 | < 5 | Cc1cc(-c2cc(Cl)ccc2OCCn2c(C)nc3c(c2=O)CC(N2CCCC(F)(F)C2)CC3)c2scc(C(=O)NS(C)(=O)=O)c2n1 (stereo not drawn) [Compound 81] | < 1000
37 | < 100 | > 20 | Cc1cc(-c2cc(Cl)ccc2OCCn2c(C)nc3c(c2=O)CC(N(C)C(=O)C2CCN(CC(F)(F)F)CC2)CC3)c2scc(C(=O)NS(C)(=O)=O)c2n1 (stereo not drawn) [Compound 82] | 1000 to 5000
